The text below walks through data of patent publication US4503060A, “3-Imino-3H-dibenzo-[c,f]-imidazo-[1,5-a]azepine pharmaceuticals” (Boehringer Ingelheim KG, priority 1981, dated 1985).

One series can be described thus: in vivo. The conditions noted are these: mouse, po.
Series [1] relates to passive cutaneous anaphylaxis (PCA). The experiment in a line: passive cutaneous anaphylaxis (PCA) in rats after passive sensitization with IgE antibodies and antigen provocation. The following applies: po; Rat. The class given is in vivo. The protocol:
(a) Tests on allergized rats were carried out after passive sensitization of the animals with IgE antibodies and subsequent antigen provocation. In this way, passive cutaneous anaphylaxis (PCA) was produced (Goose et al [1969]: Immunology 16, 749).

Another series deals with histamine wheal. The series is described as follows: histamine wheal (antihistaminic activity) in rats, Evans Blue extravasation. The class given is in vivo. From the text:
(b) Antihistaminic activity:
The results were quantified by measuring the wheal after extravasation of Evans Blue dye into the skin.

What is called LD50 is the dose expected to kill half of the subjects tested. A higher LD50 goes with lower toxicity. Usually ED50 stands for the dose at which the effect has come halfway, by size or by number of responders.

`Br.Cn1cc2n(c1=N)-c1ccccc1Cc1ccccc1-2` [Example 2, 2-Methyl-3-imino-2,3-dihydro-9H-dibenz-[c,f]-imidazo-[1,5-a]-azepine hydrobromide] registered an LD50 in “in vivo” of 280 mg/kg. Besides, in series [1], the ED50 came out at 1.1 mg/kg. The “Histamine Wheal (rat) i.v.” value in the series with histamine wheal (i.v.) came to 0.07. Moreover, in the series on histamine wheal (p.o.), the “Histamine Wheal (rat) p.o.” value was 2.7.
